Data: patent publication US12306176B2, “Microfluidic bi-directional migration assay” (Ohio State Innovation Foundation, priority 2017, dated 2025)

System: MDA-MB-231 cells
Experiment: Microfluidic bi-directional migration (MBDM) assay, mean migration speed and persistence
Type: cell-based, human
Description: To quantify the effects of iEF treatment on directed cell migration speed and persistence, a custom microfluidic bi-directional microtrack (MBDM) assay was developed that enables real-time monitoring with time-lapse microscopy of cell motility.
In this study, the EF sensing mechanisms of breast cancer cells in response to asymmetric iEFs (<100 μV/cm) was investigated. Using a MBDM assay, changes in the speed and persistence of spontaneously migrating MDA-MB-231 breast cancer cells were observed. This cell type was selected for these studies because it is a putative metastatic breast cancer cell line that is also responsive to gradients of a chemoattractant such as EGF (Wang S J, et al. (2004) Exp Cell Res 300 (1):180-189; Wu A, et al. (2013) Proc Natl Acad Sci U S A 110(40):16103-16108). […] This configuration enables direct comparison of cell movement in response to iEFs applied primarily with the direction of cell migration (“parallel”) or against the direction of cell migration (“anti-parallel”) within the same microfluidic device. Here, the field direction is defined as the direction that has the higher peak magnitude, as well as higher time-average field strength.
To calculate persistence, the following protocol was followed for each cell tracked in a microtrack of the MBDM assay. A cell starts at position Pt at time t. After a single time increment, dt, the cell moves to a new position, Pt+dt. The distance traveled during this time is the absolute difference in the two positions denoted as Li: Li=|Pt+dt−Pt|
The total distance traveled is then the sum of all distances traveled during N time increments denoted as Lt. Additionally, the total time of travel is the number of time increments multiplied by the size of the time increments denoted as Tt.
The displacement is simply the difference between the final and initial position: Ld=|PFinal−PInitial|
The MBDM assay was designed to have three ports separated by 700 μm long arrays of parallel microtracks (FIG. 1D). The dimension of each port was 50 mm×15 mm. Cells were seeded in the center port and the top and bottom ports were designated as cell collection port and/or chemokine source reservoir port depending on the experimental condition. Microchannels were designed to have a square cross-section of 20 μm×20 μm. The cross-section dimensions were on the same order as the size of single cells and mimic the dimensions of pre-existing microtracks available to cells in-vivo (Kraning-Rush C M, et al. (2013) lntegr Biol (Camb). 5 (3):606-616). Moreover, these migratory tracks are representative of physiologically relevant matrix metalloproteinase independent cancer-cell migration mode during metastasis (Friedl P & Alexander S (2011) Cell 147 (5):992-1009; Wolf K, et al. (2009) Semin Cell Dev Biol. 20 (8):931-941; Friedl P & Wolf K (2003) Nat Rev Cancer. 3 (5):362; Wolf K, et al. (2007) Nat Cell Biol. 9 (8):893; Wolf K, et al. (2003) J Cell Biol. 160 (2):267-277). The bi-directional design of this assay allows cells to migrate in either direction from the seeding port and provides a better understanding and quantification of the directional bias of external cues such as chemokine gradients and the directional effects of applied iEFs. The large ports for cell seeding ensure uniform seeding density, excellent cell viability, and repeatability.
Cells were washed in culture plates with 1×PBS solution, treated with 0.05% trypsin-EDTA solution (Sigma-Aldrich), and then counted using a hemocytometer. Cells (2×10^5) suspended in migration media were seeded in the middle port (seeding port) with an extremely small flow from the collection ports to the seeding port, which equilibrated in less than 15 minutes. The cells inside the devices were then incubated for 12 hours in migration media following which the media was aspirated and replaced with new media based on the experimental conditions. […]

[1] = MK2206 2.5 μM alone, no EGF, no iEF
[2] = MK2206 2.5 μM alone, under EGF gradient (25 ng/mL)
[3] = MK2206 2.5 μM plus anti-parallel iEFs, under EGF gradient
[4] = MK2206 2.5 μM plus parallel iEFs, under EGF gradient

NC1(c2ccc(-c3nc4ccn5c(=O)[nH]nc5c4cc3-c3ccccc3)cc2)CCC1 [MK2206]
increase of mean migration speed compared to untreated controls [1]: 9% | reduction of persistence compared to untreated controls [1]: 31% | reduction of persistence below EGF-gradient conditions (MK2206 2.5 μM alone, under EGF gradient): 9% | mean migration speed [2]: 0.36 μm/min | reduction of mean migration speed compared to EGF-gradient condition [2]: 16% | persistence compared to MK2206 treatment alone (MK2206 2.5 μM co-applied with anti-parallel iEFs, no EGF): significantly increased | average migration speed compared to untreated controls (MK2206 2.5 μM co-applied with iEFs, parallel or anti-parallel, no EGF): comparable modest decrease | mean migration speed [3]: 0.31 μm/min | reduction of mean migration speed below EGF controls [3]: 28% | reduction of persistence from the EGF control [3]: 26% | mean migration speed [4]: 0.26 μm/min | reduction of mean migration speed below EGF controls [4]: 40% | reduction of persistence from the EGF control [4]: 19% | directional response of migration speed to iEF (MK2206 treatment, no exogenous EGF gradient): nullified
